According to patent publication US9856239B1, “Carboxylic acid compound, method for preparation thereof, and use thereof” (INVENTISBIO SHANGHAI LTD., priority 2014, dated 2018):

Biological target: human URAT1 (Homo sapiens (Human), UniProt Q96S37)
Assay: Inhibition of 14C-uric acid absorption in URAT1 cell model (HEK-293T cells transfected with human URAT1)
Assay type: cell-based
Settings: HEK-293T cells transfected with human URAT1, 14C-uric acid uptake, 5 min, 37 degrees; read-out: URAT1 IC50 Activity level
Method: After 5 min, the buffer was removed from cell wells, added with 100 microliter of ice-cold and no chloride ions-containing HBSS buffer to gently rinse cells within wells so as to stop them from absorbing ^14C-uric acid, the rinsing was repeated 3 times in the same manner. 150 microliter of cell lysate (100 mM of NaOH) was added in each well. Cell plate was placed on a vibrating plate and vibrated for 10 min at a speed of 600 rpm such that the cells were completely lysed. The cell plate was put in a centrifuge and spun for 5 min at a speed of 1000 rpm, then 45 microliter of supernatant was sucked out from each well and transferred to 96-well plate (Isoplate-96 Microplate from PerkinElmer). In the new 96-well plate, 150 microliter of Ultima Gold XR scintillation solution was added in each well. The 96-well plate was vibrated for 10 min at a speed of 600 rpm on a vibrating plate. Finally, the 96-well plate was put in a MicroBeta Trilux Counter from PerkinElmer and was read, then IC50 values were calculated, and the results are shown in Table 1 below. Wherein

human URAT1, sequence (Q96S37 whole entry): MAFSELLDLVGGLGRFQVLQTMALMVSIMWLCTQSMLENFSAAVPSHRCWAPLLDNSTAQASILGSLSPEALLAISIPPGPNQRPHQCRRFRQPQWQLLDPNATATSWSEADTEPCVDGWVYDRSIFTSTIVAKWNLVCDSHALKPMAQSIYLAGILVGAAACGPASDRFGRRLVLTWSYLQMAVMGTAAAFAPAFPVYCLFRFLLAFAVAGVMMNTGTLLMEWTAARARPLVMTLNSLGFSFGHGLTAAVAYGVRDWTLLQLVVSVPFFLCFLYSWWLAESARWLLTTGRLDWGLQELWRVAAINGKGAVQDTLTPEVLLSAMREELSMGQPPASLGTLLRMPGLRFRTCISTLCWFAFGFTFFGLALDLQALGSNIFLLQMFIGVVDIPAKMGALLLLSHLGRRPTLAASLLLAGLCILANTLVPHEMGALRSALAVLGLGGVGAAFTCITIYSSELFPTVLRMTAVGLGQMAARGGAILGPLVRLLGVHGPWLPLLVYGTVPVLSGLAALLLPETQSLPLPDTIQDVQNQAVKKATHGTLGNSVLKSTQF

IC50 [nM] | Compound
< 100 | N#Cc1ccc(-c2cnccc2SCC2(C(=O)O)CC2)c2ccccc12 [Compound 1, 1-(((3-(4-cyanonaphthalen-1-yl)pyridin-4-yl)thio)methyl)cyclopropanecarboxylic acid]
100 to 1000 | N#Cc1ccc(-c2cnccc2SCCC(=O)O)c2ccccc12 [Compound 2]
< 100 | N#Cc1ccc(-c2cnccc2SCCCC(=O)O)c2ccccc12 [Compound 3]
< 100 | N#Cc1ccc(-c2cnccc2SCC2(CC(=O)O)CC2)c2ccccc12 [Compound 4, 2-(1-(((3-(4-cyanonaphthalen-1-yl)pyridin-4-yl)thio)methyl)cyclopropyl)acetic acid]
100 to 1000 | N#Cc1ccc(-c2cnccc2SC[C@H]2C[C@@H](C(=O)O)C2)c2ccccc12 [Compound 5]
> 1000 | N#Cc1ccc(-c2cnccc2SC[C@H]2C[C@H](C(=O)O)C2)c2ccccc12 [Compound 6]
100 to 1000 | N#Cc1ccc(-c2cnccc2S[C@H]2C[C@H](C(=O)O)C2)c2ccccc12 [Compound 7]
> 1000 | CC(C)(Sc1ccncc1-n1cc(C#N)c2ccccc21)C(=O)O [Compound 8, 2-((3-(3-cyano-1H-indol-1-yl)pyridin-4-yl)thio)-2-methylpropanoic acid]
> 1000 | CC(C)(Sc1ccncc1-n1nc(C2CC2)c2ccccc21)C(=O)O [Compound 9]
> 1000 | CC(C)(Sc1ccncc1-c1ncc(C#N)c2ccccc12)C(=O)O [Compound 10, 2-((3-(4-cyanoisoquinolin-1-yl)pyridin-4-yl)thio)-2-methylpropanoic acid]
< 100 | N#Cc1ccc(-c2ccccc2SCC2(CC(=O)O)CC2)cc1 [Compound 11, 2-(1-((2-(4-cyanophenyl)phenylthio)methyl)cyclopropyl)acetic acid]
100 to 1000 | N#Cc1ccc(-c2cnccc2SCCC(F)(F)C(=O)O)c2ccccc12 [Compound 12]
100 to 1000 | N#Cc1ccc(-c2cnccc2Sc2ccccc2C(=O)O)c2ccccc12 [Compound 13]
100 to 1000 | N#Cc1ccc(-c2cnccc2Sc2cccc(C(=O)O)c2)c2ccccc12 [Compound 14]
100 to 1000 | N#Cc1ccc(-c2cnccc2Sc2ccc(C(=O)O)cc2)c2ccccc12 [Compound 15]
< 100 | N#Cc1ccc(-c2cnccc2SCC2(C(=O)O)CCCC2)c2ccccc12 [Compound 16]
< 100 | N#Cc1ccc(-c2cnccc2SCC2(C(=O)O)CCC2)c2ccccc12 [Compound 17, 1-(((3-(4-cyanonaphthalen-1-yl)pyridin-4-yl)thio)methyl)cyclobutanecarboxylic acid]
> 1000 | Cc1cc(C#N)cnc1-c1cnccc1SC(C)(C)C(=O)O [Compound 19]

IC50 [nM] | Compound
< 100 | N#Cc1ccc(-c2cnccc2SCC2(CC(=O)O)CC2)cc1 [Compound 20, 2-(1-(((3-(4-cyanophenyl)pyridin-4-yl)thio)methyl)cyclopropyl)acetic acid]
100 to 1000 | O=C(O)CC1(CSc2ccncc2-c2ccc(CO)cc2)CC1 [Compound 22, 2-(1-((3-(4-(hydroxymethyl)phenyl)pyridin-4-ylthio)methyl)cyclopropyl)acetic acid]
> 1000 | N#Cc1ccc(-c2cnccc2NCC(=O)O)c2ccccc12 [Compound 24, 2-(3-(1-cyanonaphthalen-4-yl)pyridin-4-ylamino)acetic acid]
> 1000 | CC(C)(Nc1ccncc1-c1ccc(C#N)c2ccccc12)C(=O)O [Compound 25]
> 1000 | N#Cc1ccc(-c2cnccc2NCCC(=O)O)c2ccccc12 [Compound 26]
> 1000 | N#Cc1ccc(-c2cnccc2NCCCC(=O)O)c2ccccc12 [Compound 27]
> 1000 | N#Cc1ccc(-c2cnccc2NCC(=O)O)cc1 [Compound 28]
> 1000 | N#Cc1ccc(-c2cnccc2OCC2(CC(=O)O)CC2)cc1 [Compound 29, 2-(1-(((3-(4-cyanophenyl)pyridin-4-yl)oxy)methyl)cyclopropyl)acetic acid]
> 1000 | N#Cc1ccc(-c2cnccc2OCC2(CC(=O)O)CC2)c2ccccc12 [Compound 30]
> 1000 | CC(C)(Oc1ccncc1-c1ccc(C#N)cc1)C(=O)O [Compound 31, 2-(3-(4-cyanophenyl)pyridin-4-yloxy)-2-methylpropanoic acid]
100 to 1000 | CC(C)(Sc1ccncc1-c1ccc(C2(O)CC2)cc1)C(=O)O [Compound 33, 2-((3-(4-(1-hydroxycyclopropyl)phenyl)pyridin-4-yl)thio)-2-methylpropanoic acid]
100 to 1000 | O=C(O)CC1(CSc2ccncc2-c2ccc(C3(O)CC3)cc2)CC1 [Compound 34, 2-(1-(((3-(4-(1-hydroxycyclopropyl)phenyl)pyridin-4-yl)thio)methyl)cyclopropyl)acetic acid]
100 to 1000 | CC(C)(Sc1ccncc1-c1ccc(C2(O)COC2)cc1)C(=O)O [Compound 35, 2-((3-(4-(3-hydroxyoxetan-3-yl)phenyl)pyridin-4-yl)thio)-2-methylpropanoic acid]
> 1000 | CC(C)(Sc1ccncc1-c1ccc(C#N)cn1)C(=O)O [Compound 37, 2-((5-cyano-[2,3′-bipyridine]-4′-yl)thio)-2-methylpropanoic acid]
> 1000 | N#Cc1ccc(-c2cnccc2SCC2(CC(=O)O)CC2)nc1 [Compound 38, 2-(1-(((5-cyano-2,3′-bipyridin-4′-yl)thio)methyl)cyclopropyl)acetic acid]
> 1000 | O=C(O)CC1(CSc2ccncc2-c2ccc(C(=O)O)cn2)CC1 [Compound 39, 4′-(((1-(carboxymethyl)cyclopropyl)methyl)thio)-[2,3′-bipyridine]-5-carboxylic acid]
< 100 | [2H]C([2H])([2H])C(Sc1ccncc1-c1ccc(C#N)c2ccccc12)(C(=O)O)C([2H])([2H])[2H] [Compound 40, di(methyl-d3)-2-((3-(4-cyanonaphthalen-1-yl)pyridin-4-yl)thio)acetic acid]
< 100 | [2H]C([2H])([2H])C(C)(Sc1ccncc1-c1ccc(C#N)c2ccccc12)C(=O)O (stereo not drawn) [Compound 41, 2-methyl-d3-2-((3-(4-cyanonaphthalen-1-yl)pyridin-4-yl)thio) propanoic acid]

Compound | IC50 [nM]
CC(C)(CCC(=O)O)Sc1ccncc1-c1ccc(C#N)c2ccccc12 [Compound 18, 4-((3-(4-cyanonaphthalen-1-yl)pyridin-4-yl)thio)-4-methylpentanoic acid] | < 100
N#Cc1ccc(-c2cnccc2CCC(=O)O)c2ccccc12 [Compound 32, 3-(3-(4-cyanonaphthalen-1-yl)pyridin-4-yl) propanoic acid] | > 1000
O=C(O)CC1(CSc2ccncc2-c2ccc(C3(O)COC3)cc2)CC1 [Compound 36, 2-(1-(((3-(4-(3-hydroxyoxetan-3-yl)phenyl)pyridin-4-yl)thio)methyl)cyclopropyl)acetic acid] | > 1000
